Read-outs that look alike come from different tables or passages of the source.
Assays:
[1] = system: Key Broadleaf Weed and Crop Species; assay: Post-Emergent Test II (Table 5); format: in vivo; conditions: post-emergence, 336 h; for pest or weed control at 70 g/ha: application rate 70 (kg ai/ha; footnote: g ai/ha); for pest or weed control at 140 g/ha: application rate 140 (kg ai/ha; footnote: g ai/ha)
Procedure, shortened: (§1)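 Visual injury ratings (0 = no injury, 100 = complete kill) were taken 14 days after treatment relative to untreated plants. Seedlings at the first or second true leaf stage received an overhead spray at 187 L/ha, and solvent-blank sprayed plants served as controls.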

[2] = system: Key Grass and Sedge Weeds as well as Grass Crops; assay: Post-Emergent Test II (Table 6); format: in vivo; conditions: post-emergence, 336 h, 14 days after application; for pest or weed control at 70 g/ha: 70 g ai/ha; for pest or weed control at 140 g/ha: 140 g ai/ha
Procedure, shortened: as §1

[3] = Abutilon theophrasti, ABUTH: velvetleaf (Abutilon theophrasti), read-out: Visual Growth Reduction (%) 14 Days After Application ABUTH
[4] = Amaranthus retroflexus, AMARE: redroot pigweed (Amaranthus retroflexus), read-out: Visual Growth Reduction (%) 14 Days After Application AMARE
[5] = Brassica napus, BRSSS: oilseed rape, canola (Brassica napus), read-out: Visual Growth Reduction (%) 14 Days After Application BRSSS
[6] = Chenopodium album, CHEAL: lambsquarters (Chenopodium album), read-out: Visual Growth Reduction (%) 14 Days After Application CHEAL
[7] = Euphorbia heterophylla, EPHHL: wild poinsettia (Euphorbia heterophylla), read-out: Visual Growth Reduction (%) 14 Days After Application EPHHL
[8] = Helianthus annuus, HELAN: sunflower (Helianthus annuus), read-out: Visual Growth Reduction (%) 14 Days After Application HELAN
[9] = Viola tricolor, VIOTR: wild pansy (Viola tricolor), read-out: Visual Growth Reduction (%) 14 Days After Application VIOTR
[10] = CYPSS, read-out: Visual Growth Reduction (%) 14 Days After Application CYPSS
[11] = DIGSA: crabgrass (Digitaria sanguinalis), read-out: Visual Growth Reduction (%) 14 Days After Application DIGSA
[12] = ECHSS, read-out: Visual Growth Reduction (%) 14 Days After Application ECHSS
[13] = ORYSS (crop), read-out: Visual Growth Reduction (%) 14 Days After Application ORYSS
[14] = SETFA: giant foxtail (Setaria faberi), read-out: Visual Growth Reduction (%) 14 Days After Application SETFA
[15] = SORVU: grain sorghum (Sorghum vulgare), read-out: Visual Growth Reduction (%) 14 Days After Application SORVU
[16] = TRZSS (crop), read-out: Visual Growth Reduction (%) 14 Days After Application TRZSS
[17] = ZEAMX: maize, corn (Zea mays), read-out: Visual Growth Reduction (%) 14 Days After Application ZEAMX

| SMILES | melting point | pest or weed control at 70 g/ha [1, 3] | pest or weed control at 140 g/ha [1, 3] | pest or weed control at 70 g/ha [1, 4] | pest or weed control at 140 g/ha [1, 4] | pest or weed control at 70 g/ha [1, 5] | pest or weed control at 140 g/ha [1, 5] | pest or weed control at 70 g/ha [1, 6] | pest or weed control at 140 g/ha [1, 6] | pest or weed control at 70 g/ha [1, 7] | pest or weed control at 140 g/ha [1, 7] | pest or weed control at 70 g/ha [1, 8] | pest or weed control at 140 g/ha [1, 8] | pest or weed control at 70 g/ha [1, 9] | pest or weed control at 140 g/ha [1, 9] | pest or weed control at 70 g/ha [2, 10] | pest or weed control at 140 g/ha [2, 10] | pest or weed control at 70 g/ha [2, 11] | pest or weed control at 140 g/ha [2, 11] | pest or weed control at 70 g/ha [2, 12] | also measured |
| --- | --- | --- | --- | --- | --- | --- | --- | --- | --- | --- | --- | --- | --- | --- | --- | --- | --- | --- | --- | --- | --- |
| COC(=O)c1nc(-c2ccc(C(F)(F)F)nc2)c(Cl)c(N)c1Cl [Compound 83] | 148 to 150 °C | 60 to 74% | 60 to 74% | 0 to 29% | 0 to 29% | 45 to 59% | 45 to 59% | 60 to 74% | 75 to 84% | 0 to 29% | 30 to 44% | 85 to 94% | 85 to 94% | 0 to 29% | 0 to 29% | 30 to 44% | 45 to 59% | 60 to 74% | 75 to 84% | 60 to 74% | pest or weed control at 140 g/ha [2, 12]: 75 to 84%; pest or weed control at 70 g/ha [2, 13]: 0 to 29%; pest or weed control at 140 g/ha [2, 13]: 0 to 29%; pest or weed control at 70 g/ha [2, 14]: 75 to 84%; pest or weed control at 140 g/ha [2, 14]: 75 to 84%; pest or weed control at 70 g/ha [2, 15]: 75 to 84%; pest or weed control at 140 g/ha [2, 15]: 75 to 84%; pest or weed control at 70 g/ha [2, 16]: 45 to 59%; pest or weed control at 140 g/ha [2, 16]: 60 to 74%; pest or weed control at 70 g/ha [2, 17]: 75 to 84%; pest or weed control at 140 g/ha [2, 17]: 75 to 84% |
| COC(=O)c1nc(-c2cccnc2)c(F)c(N)c1Cl [Compound 50] | 163 to 164 °C | 0 to 29% | 0 to 29% | 0 to 29% | 95 to 100% | 0 to 29% | 30 to 44% | 75 to 84% | 85 to 94% | 0 to 29% | 0 to 29% | 85 to 94% | 85 to 94% | 0 to 29% | 0 to 29% | 0 to 29% | 0 to 29% | 0 to 29% | 0 to 29% | 0 to 29% | pest or weed control at 140 g/ha [2, 12]: 0 to 29%; pest or weed control at 70 g/ha [2, 13]: 0 to 29%; pest or weed control at 140 g/ha [2, 13]: 0 to 29%; pest or weed control at 140 g/ha [2, 14]: 60 to 74%; pest or weed control at 70 g/ha [2, 15]: 0 to 29%; pest or weed control at 140 g/ha [2, 15]: 0 to 29%; pest or weed control at 70 g/ha [2, 16]: 0 to 29%; pest or weed control at 140 g/ha [2, 16]: 0 to 29%; pest or weed control at 70 g/ha [2, 17]: 0 to 29%; pest or weed control at 140 g/ha [2, 17]: 0 to 29% |
| COC(=O)c1nc(-c2ccc(C(F)(F)F)nc2F)nc(N)c1Cl [Compound 47] | 150 to 153 °C | 0 to 29% | 0 to 29% | 0 to 29% | 0 to 29% | 0 to 29% | 0 to 29% | 0 to 29% | 45 to 59% | 0 to 29% | 0 to 29% | 0 to 29% | 0 to 29% | 0 to 29% | 0 to 29% | 0 to 29% | 0 to 29% | 0 to 29% | 0 to 29% | 0 to 29% | pest or weed control at 140 g/ha [2, 12]: 0 to 29%; pest or weed control at 70 g/ha [2, 13]: 0 to 29%; pest or weed control at 140 g/ha [2, 13]: 0 to 29%; pest or weed control at 70 g/ha [2, 14]: 0 to 29%; pest or weed control at 140 g/ha [2, 14]: 0 to 29%; pest or weed control at 70 g/ha [2, 15]: 0 to 29%; pest or weed control at 140 g/ha [2, 15]: 0 to 29%; pest or weed control at 70 g/ha [2, 16]: 0 to 29%; pest or weed control at 140 g/ha [2, 16]: 0 to 29%; pest or weed control at 70 g/ha [2, 17]: 0 to 29%; pest or weed control at 140 g/ha [2, 17]: 0 to 29% |
